Results from BigSolDB 2.1.

O=C1CCC(c2ccc(Cl)c(Cl)c2)c2ccccc21 (configuration not stated)
Conditions | solubility (mole fraction)
in DMF, 278.16 K | 0.0335
in DMF, 283.37 K | 0.0408
in DMF, 288.12 K | 0.0487
in DMF, 293.13 K | 0.059
in DMF, 298.17 K | 0.0717
in DMF, 303.28 K | 0.0881
in DMF, 308.28 K | 0.106
in DMF, 313.32 K | 0.129
in DMF, 318.27 K | 0.155
in THF, 278.04 K | 0.0699
in THF, 282.93 K | 0.0823
in THF, 288.33 K | 0.096
in THF, 293.28 K | 0.109
in THF, 298.24 K | 0.124
in THF, 302.94 K | 0.14
in THF, 308.34 K | 0.162
in THF, 313.52 K | 0.187
in acetone, 282.13 K | 0.0162
in acetone, 288.02 K | 0.0217
in acetone, 292.83 K | 0.0261
in acetone, 298.28 K | 0.0321
in acetone, 303.23 K | 0.0397
in acetone, 307.94 K | 0.0498
in acetone, 313.74 K | 0.0673
in acetone, 318.56 K | 0.0871
in acetone, 323.57 K | 0.114
in ethanol, 283.12 K | 0.00171
in ethanol, 288.27 K | 0.0021
in ethanol, 293.38 K | 0.00252
in ethanol, 298.04 K | 0.00303
in ethanol, 302.93 K | 0.00376
in ethanol, 308.32 K | 0.0049
in ethanol, 314.17 K | 0.00667
in ethanol, 318.74 K | 0.00852
in ethanol, 323.26 K | 0.0108
in isopropanol, 278.12 K | 0.000955
in isopropanol, 283.38 K | 0.00128
in isopropanol, 288.33 K | 0.00163
in isopropanol, 293.07 K | 0.00209
in isopropanol, 298.33 K | 0.00278
in isopropanol, 303.36 K | 0.0037
in isopropanol, 308.46 K | 0.00496
in isopropanol, 313.26 K | 0.00649
in isopropanol, 318.54 K | 0.00864
in methanol, 277.93 K | 0.00087
in methanol, 283.06 K | 0.00107
in methanol, 288.28 K | 0.00141
in methanol, 293.42 K | 0.00186
in methanol, 298.04 K | 0.00235
in methanol, 302.77 K | 0.00293
in methanol, 308.56 K | 0.00372
in methanol, 313.53 K | 0.00446
in methanol, 319.04 K | 0.00533
in toluene, 278.18 K | 0.0391
in toluene, 283.13 K | 0.0461
in toluene, 288.28 K | 0.0548
in toluene, 293.22 K | 0.0649
in toluene, 298.12 K | 0.0771
in toluene, 303.14 K | 0.0924
in toluene, 308.46 K | 0.112
in toluene, 313.43 K | 0.135
in toluene, 318.34 K | 0.161
